Where two headings read alike, the source gives them in different places.
Experiments:
[1] = test system: NO synthesis in J744A.1 macrophage; experiment: inhibition of nitric oxide (NO) synthesis in LPS-activated macrophages (Griess reagent); type: cell-based; conditions: read-out: Inhibition (%) of NO synthesis
[2] = biological target: c-Src tyrosine kinase (Homo sapiens (Human), UniProt P12931); experiment: in vitro c-Src tyrosine kinase inhibition (32P-ATP, poly(D4Y)n substrate); type: biochemical; conditions: read-out: % inhibition against c-Src
c-Src tyrosine kinase, sequence (P12931 whole entry, looked up, the tested form may be a part): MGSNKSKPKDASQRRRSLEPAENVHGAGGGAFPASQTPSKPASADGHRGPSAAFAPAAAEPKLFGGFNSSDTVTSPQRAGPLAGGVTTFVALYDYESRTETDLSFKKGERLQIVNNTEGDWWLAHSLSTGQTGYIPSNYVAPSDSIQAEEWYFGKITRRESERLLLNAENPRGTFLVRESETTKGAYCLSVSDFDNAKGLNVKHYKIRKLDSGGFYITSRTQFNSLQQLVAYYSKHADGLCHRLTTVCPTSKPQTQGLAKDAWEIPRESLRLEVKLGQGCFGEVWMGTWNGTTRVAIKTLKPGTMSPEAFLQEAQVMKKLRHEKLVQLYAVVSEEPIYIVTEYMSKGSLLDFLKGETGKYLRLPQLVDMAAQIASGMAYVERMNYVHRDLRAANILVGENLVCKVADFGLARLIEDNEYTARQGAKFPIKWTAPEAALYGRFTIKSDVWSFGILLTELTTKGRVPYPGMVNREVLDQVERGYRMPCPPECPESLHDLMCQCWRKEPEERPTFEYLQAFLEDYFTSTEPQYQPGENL

[3] = biological target: DDR2 tyrosine kinase (Homo sapiens (Human), UniProt Q16832); experiment: in vitro DDR2 tyrosine kinase inhibition (GST-fused kinase domain); type: biochemical; conditions: read-out: % inhibition against DDR2
DDR2 tyrosine kinase, sequence (Q16832 563-849): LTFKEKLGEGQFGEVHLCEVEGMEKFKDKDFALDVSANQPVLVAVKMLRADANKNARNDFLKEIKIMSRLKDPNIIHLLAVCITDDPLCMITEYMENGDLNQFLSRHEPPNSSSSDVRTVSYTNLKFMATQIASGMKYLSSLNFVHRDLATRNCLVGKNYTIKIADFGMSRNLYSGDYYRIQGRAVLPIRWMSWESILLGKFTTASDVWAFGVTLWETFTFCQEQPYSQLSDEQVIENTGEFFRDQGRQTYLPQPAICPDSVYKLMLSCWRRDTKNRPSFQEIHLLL

[4] = test system: α-smooth muscle actin protein expression in skin fibroblast cells; experiment: inhibition of α-smooth muscle actin expression in fibroblast activated by type I collagen and TGF-β1 (western blotting); type: cell-based, Balb/C mouse; conditions: Mus musculus, read-out: Inhibition (%) of α-smooth muscle actin increase
From the text: When fibroblast, […] alpha smooth muscle cells are converted to myofibroblast by activation, one of characteristic features is that α-smooth muscle actin protein expression is increased. Also myoblast cells with the increased α-smooth muscle actin expression have a character of an increased migration. These phenomena appear together with the activation of inflammatory cells and the activated myoblast-type cells are known to contribute directly to the pathology of inflammatory diseases. […] In this experiment, the expression level of alpha smooth muscle actin can be quantificated by measuring the density of α-smooth muscle actin protein band with densitometer after developing the X-ray film of chemiluminescence signal in western blotting experiment.

[5] = biological target: Hck tyrosine kinase (Homo sapiens (Human), UniProt P08631); experiment: in vitro Hck tyrosine kinase inhibition; type: biochemical; conditions: read-out: % inhibition against Hck
Hck tyrosine kinase, sequence (P08631 whole entry): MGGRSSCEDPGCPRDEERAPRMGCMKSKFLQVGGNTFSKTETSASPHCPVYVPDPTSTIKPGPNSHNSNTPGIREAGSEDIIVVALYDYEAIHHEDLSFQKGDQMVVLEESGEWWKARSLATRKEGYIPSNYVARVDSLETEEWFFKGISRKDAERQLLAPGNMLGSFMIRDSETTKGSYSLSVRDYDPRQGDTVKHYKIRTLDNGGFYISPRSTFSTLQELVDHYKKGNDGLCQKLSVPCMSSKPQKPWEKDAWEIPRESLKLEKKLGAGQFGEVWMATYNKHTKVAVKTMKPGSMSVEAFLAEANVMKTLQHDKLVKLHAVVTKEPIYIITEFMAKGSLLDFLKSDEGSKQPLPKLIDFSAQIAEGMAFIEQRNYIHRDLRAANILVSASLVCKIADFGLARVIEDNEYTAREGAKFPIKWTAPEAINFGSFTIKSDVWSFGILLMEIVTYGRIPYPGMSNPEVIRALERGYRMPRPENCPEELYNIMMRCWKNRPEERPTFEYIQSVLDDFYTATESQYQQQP

[6] = biological target: Lyn tyrosine kinase (Homo sapiens (Human), UniProt P07948); experiment: in vitro Lyn tyrosine kinase inhibition; type: biochemical; conditions: read-out: % inhibition against Lyn
Lyn tyrosine kinase, sequence (P07948 whole entry): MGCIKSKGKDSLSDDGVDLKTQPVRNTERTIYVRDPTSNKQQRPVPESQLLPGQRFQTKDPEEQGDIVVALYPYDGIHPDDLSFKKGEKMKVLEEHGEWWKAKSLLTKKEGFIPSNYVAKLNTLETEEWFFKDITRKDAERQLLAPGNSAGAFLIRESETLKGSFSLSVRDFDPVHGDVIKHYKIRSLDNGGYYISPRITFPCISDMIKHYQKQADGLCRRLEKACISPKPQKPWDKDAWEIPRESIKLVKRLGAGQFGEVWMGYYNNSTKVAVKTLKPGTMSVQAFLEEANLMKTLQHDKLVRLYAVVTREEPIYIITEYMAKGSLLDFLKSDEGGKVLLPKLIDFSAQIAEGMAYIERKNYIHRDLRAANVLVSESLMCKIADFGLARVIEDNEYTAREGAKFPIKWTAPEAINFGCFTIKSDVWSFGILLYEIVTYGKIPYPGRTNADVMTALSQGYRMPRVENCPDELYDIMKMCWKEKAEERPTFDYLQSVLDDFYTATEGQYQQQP

[7] = test system: mouse skin fibroblast; experiment: inhibition of migration of activated fibroblast (scratch wound); type: cell-based; conditions: read-out: Inhibition (%) of migration of activated fibroblast
Procedure: The straight line of regular width was made using a micro pipette tip for a scratch wound on the mono-layer culture, and then the culture was exchanged to DMEM medium and incubated with 10 ng/ml of TGF-β1 in cell culture incubator of 37° C. for 24 hours. The cultured cells were fixed using formalin and stained with crystal violet. Photo-pictures were taken at 100× magnification in five location selected randomly in the scratched wound site of each stained culture dish and then the number of the cells moved into the scratched wound area was counted and averaged.

[8] = test system: TNF-α synthesis in J744A.1 macrophages; experiment: inhibition of TNF-α synthesis in LPS-activated macrophages (ELISA); type: cell-based; conditions: Macrophage, read-out: Inhibition (%) of TNF-α synthesis
[9] = test system: oxazolone-induced skin inflammation of Balb/C mouse ears; experiment: mouse skin inflammatory model induced by oxazolone (ear thickness); type: in vivo; conditions: 20 ul of 0.1% compound topical on ear, 36 hours after oxazolone
Procedure: The compounds of the present invention were evaluated for their effective anti-inflammatory activity using a skin inflammatory animal model of 8 weeks old Balb/C mouse ears induced by oxazolone. […] After 4 days, the thickness of ear was measured using a caliper for the thickness value of ear before the induction of inflammation. […] After 36 hours, the thickness of ear was measured for the increased thickness induced by inflammation. […] The average value was obtained in each group (n=4).

[10] = biological target: DDR1 tyrosine kinase (Homo sapiens (Human), UniProt Q08345); experiment: in vitro DDR1 tyrosine kinase inhibition (GST-fused kinase domain); type: biochemical; conditions: read-out: % inhibition against DDR1
DDR1 tyrosine kinase, sequence (Q08345 610-905): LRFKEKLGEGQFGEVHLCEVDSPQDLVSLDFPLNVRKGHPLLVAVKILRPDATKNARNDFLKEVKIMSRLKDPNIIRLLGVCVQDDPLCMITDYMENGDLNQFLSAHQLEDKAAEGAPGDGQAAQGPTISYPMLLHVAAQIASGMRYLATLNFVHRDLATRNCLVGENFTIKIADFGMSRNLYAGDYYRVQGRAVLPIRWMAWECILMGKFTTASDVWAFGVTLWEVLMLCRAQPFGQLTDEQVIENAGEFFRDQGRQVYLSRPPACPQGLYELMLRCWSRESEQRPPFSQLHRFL

[11] = biological target: Fgr tyrosine kinase (Homo sapiens (Human), UniProt P09769); experiment: in vitro Fgr tyrosine kinase inhibition; type: biochemical; conditions: read-out: % inhibition against Fgr
Fgr tyrosine kinase, sequence (P09769 whole entry): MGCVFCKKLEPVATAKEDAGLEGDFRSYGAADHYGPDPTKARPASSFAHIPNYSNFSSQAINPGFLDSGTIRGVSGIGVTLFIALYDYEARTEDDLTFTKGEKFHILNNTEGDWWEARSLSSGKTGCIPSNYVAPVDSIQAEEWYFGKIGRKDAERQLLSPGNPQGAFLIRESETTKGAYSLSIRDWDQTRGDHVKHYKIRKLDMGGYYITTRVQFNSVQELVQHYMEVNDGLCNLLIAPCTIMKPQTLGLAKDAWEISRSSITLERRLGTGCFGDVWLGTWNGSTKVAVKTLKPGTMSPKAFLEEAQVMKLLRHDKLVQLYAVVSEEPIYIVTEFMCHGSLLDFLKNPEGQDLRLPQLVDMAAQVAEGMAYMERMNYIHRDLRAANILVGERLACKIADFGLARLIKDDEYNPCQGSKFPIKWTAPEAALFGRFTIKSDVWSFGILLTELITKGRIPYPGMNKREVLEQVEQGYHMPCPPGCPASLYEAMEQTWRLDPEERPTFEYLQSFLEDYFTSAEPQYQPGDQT

[12] = 0.5 uM compound, 10 ng/ml TGF-β1, 48 hours, type I collagen
[13] = 0.5 uM compound, 10 ng/ml TGF-β1, 24 hours
[14] = 10 μM compound, 100 ng/ml LPS, 6 hours

| inhibition at 1 µM ([2]; 1 uM compound) [%] | inhibition at 1 µM ([3]; 1 uM compound) [%] | inhibition at 1 µM ([5]; 1 uM compound) [%] | inhibition at 1 µM ([6]; 1 uM compound) [%] | inhibition at 1 µM ([10]; 1 uM compound) [%] | inhibition at 1 µM ([11]; 1 uM compound) [%] | SMILES | inhibition at 10 µM ([1]; 10 μM compound, LPS, 24 hours) [%] | inhibition at 0.5 µM [4, 12] [%] | inhibition at 0.5 µM [7, 13] [%] | inhibition at 10 µM [8, 14] [%] | other results |
| --- | --- | --- | --- | --- | --- | --- | --- | --- | --- | --- | --- |
| – | – | – | – | – | – | Cc1cc2cc(Nc3ccnc4cc(C(=O)N5CC[C@@H](O)C5)sc34)ccc2n1C(=O)NC1CC1 [Control compound 1, 5-[2-(3R-hydroxy-pyrrolidine-1-carbonyl)-thieno[3,2-b]pyridine-7-ylamino]-2-methyl-indole-1-carboxyacid cycloprophylamide, reference compound] | – | – | – | – | inhibition at 10 µM ([1]; 24 h): 32%; inhibition at 1 µM [2]: < 20%; inhibition at 1 µM [3]: < 20%; inhibition at 0.5 µM ([4]; 48 h): 16%; inhibition at 1 µM [5]: < 20%; inhibition at 1 µM [6]: < 20%; inhibition at 0.5 µM ([7]; 24 h): 17%; inhibition at 10 µM ([8]; 6 h): 16%; Inhibition (%) of increase of ear thickness [9]: 3%; inhibition at 1 µM [10]: < 20%; inhibition at 1 µM [11]: < 20% |
| < 20 | < 20 | < 20 | < 20 | < 20 | < 20 | COC[C@@H]1CCCN1C(=O)c1cc2nccc(Nc3ccc4c(c3)cc(C)n4C(=O)NC3CC3)c2s1 [Control compound 2, 5-(2-[(S)-2-(methoxymethyl)pyrrolidine-1-carbonyl]thieno[3,2-b]pyridine-7-ylamino)-2-methylindole-1-carboxyacid cycloprophylamide, reference compound] | 45 | 22 | 14 | 39 | – |
| > 50 | > 70 | > 50 | > 50 | > 70 | > 50 | Oc1cccc(Nc2ncnc3cc(-c4ccoc4)sc23)c1 [LCB 03-0039, 3-(6-(furan-3-yl)thieno[3,2-d]pyrimidin-4-ylamino)phenol] | 80 | – | – | 80 | – |
| > 40 | > 80 | > 40 | > 40 | > 80 | > 40 | O=C(Cc1ccc(-c2cc3ncnc(Nc4cccc(O)c4)c3s2)cc1)N1CCCC1 [LCB 03-0049, 2-(4-(4-(3-hydroxyphenylamino)thieno[3,2-d]pyrimidin-6-yl)phenyl)-1-(pyrrolidin-1-yl)ethanone] | 88 | – | – | 57 | – |
| > 70 | > 80 | > 70 | > 70 | > 80 | > 70 | O=C(c1cccc(-c2cc3ncnc(Nc4cccc(O)c4)c3s2)c1)N1CCCC1 [LCB 03-0053, (3-(4-(3-hydroxyphenylamino)thieno[3,2-d]pyrimidin-6-yl)phenyl)(pyrrolidin-1-yl)methanone] | 94 | – | – | 83 | – |
| > 60 | > 80 | > 60 | > 50 | > 80 | > 60 | CCN(CC)C(=O)c1cccc(-c2cc3ncnc(Nc4cccc(O)c4)c3s2)c1 [LCB 03-0054, N,N-diethyl-3-(4-(3-hydroxyphenylamino)thieno[3,2-d]pyrimidin-6-yl)benzamide] | 92 | – | – | 77 | – |
| > 50 | > 80 | > 50 | > 50 | > 80 | > 50 | OCC1CCCN1Cc1ccc(-c2cc3ncnc(Nc4cccc(O)c4)c3s2)cc1 (stereo not shown) [LCB 03-0057, 3-(6-(4-((2-(hydroxymethyl)pyrrolidin-1-yl)methyl)phenyl)thieno[3,2-d]pyrimidin-4-ylamino)phenol] | 87 | – | – | 64 | – |
| > 40 | > 80 | > 40 | > 40 | > 80 | > 40 | CC1CCN(Cc2ccc(-c3cc4ncnc(Nc5cccc(O)c5)c4s3)cc2)CC1 [LCB 03-0058, 3-(6-(4-((4-methylpiperidin-1-yl)methyl)phenyl)thieno[3,2-d]pyrimidin-4-ylamino)phenol] | 80 | – | – | 58 | – |
| – | > 80 | – | – | > 80 | – | Cl.Oc1cccc(Nc2ncnc3cc(-c4ccc(CN5CCC(O)C5)cc4)sc23)c1 (stereo not shown) [LCB 03-0072, 1-(4-(4-(3-hydroxyphenylamino)thieno[3,2-d]pyrimidin-6-yl)benzyl)pyrrolidin-3-ol] | 76 | 39 | 27 | 59 | Inhibition (%) of increase of ear thickness [9]: 48% |
| > 30 | > 80 | > 30 | > 30 | > 80 | > 30 | Oc1cccc(Nc2ccnc3cc(-c4ccc(CN5CCCCC5)cc4)sc23)c1 [LCB 03-0097, 3-(2-(4-(piperidin-1-ylmethyl)phenyl)thieno[3,2-b]pyridin-7-ylamino)phenol] | – | 45 | 34 | – | – |
| > 30 | > 80 | > 30 | > 30 | > 80 | > 30 | Oc1cccc(Nc2ccnc3cc(-c4ccc(CN5CCNCC5)cc4)sc23)c1 [LCB 03-0098, 3-(2-(4-(piperazin-1-ylmethyl)phenyl)thieno[3,2-b]pyridin-7-ylamino)phenol] | – | 51 | 34 | – | – |
| > 30 | > 80 | > 30 | > 30 | > 80 | > 30 | CCNCc1ccc(-c2cc3nccc(Nc4cccc(O)c4)c3s2)cc1 [LCB 03-0099, 3-(2-(4-((ethylamino)methyl)phenyl)thieno[3,2-b]pyridin-7-ylamino)phenol] | – | 39 | 29 | – | – |
| – | – | – | – | – | – | Oc1cccc(Nc2ncnc3cc(-c4cc(CN5CCCC5)cs4)sc23)c1 [LCB 03-0101, 3-(6-(4-(pyrrolidin-1-ylmethyl)thiophene-2-yl)thieno[3,2-d]pyrimidin-4-ylamino)phenol] | – | – | – | – | inhibition at 10 µM ([1]; 24 h): 76%; inhibition at 1 µM [2]: > 70%; inhibition at 1 µM [3]: > 70%; inhibition at 1 µM [5]: > 70%; inhibition at 1 µM [6]: > 70%; inhibition at 10 µM ([8]; 6 h): 71%; inhibition at 1 µM [10]: > 70%; inhibition at 1 µM [11]: > 70% |

| SMILES | inhibition at 1 µM ([2]; 1 uM compound) [%] | inhibition at 1 µM ([3]; 1 uM compound) [%] | inhibition at 1 µM ([5]; 1 uM compound) [%] | inhibition at 1 µM ([6]; 1 uM compound) [%] | inhibition at 1 µM ([10]; 1 uM compound) [%] | inhibition at 1 µM ([11]; 1 uM compound) [%] | inhibition at 10 µM ([1]; 10 μM compound, LPS, 24 hours) [%] | inhibition at 0.5 µM [4, 12] [%] | inhibition at 0.5 µM [7, 13] [%] | inhibition at 10 µM [8, 14] [%] | other results |
| --- | --- | --- | --- | --- | --- | --- | --- | --- | --- | --- | --- |
| CCNCc1ccc(-c2cc3ncnc(Nc4cccc(O)c4)c3s2)s1 [LCB 03-0095, 3-(6-(5-((ethylamino)methyl)thiophene-2-yl)thieno[3,2-d]pyrimidin-4-ylamino)phenol] | > 60 | > 80 | > 50 | > 60 | > 80 | > 60 | – | 37 | 23 | – | inhibition at 10 µM ([1]; 24 h): 59%; Inhibition (%) of increase of ear thickness [9]: 43% |

Reference: patent publication US9062066B2, “Anti-inflammatory compound having inhibitory activity against multiple tyrosine kinases and pharmaceutical composition containing same” (KOREA INSTITUTE OF SCIENCE AND TECHNOLOGY, priority 2010, dated 2015)
